Source: patent US12570639B2, “Tetrahydroquinoline derivative and medicinal use thereof” (Toray Industries, Inc., priority 2020, dated 2026)

How the values were obtained:
[1] = system: Human fibrosarcoma cells (HT-1080 cells); assay: In vitro inhibitory action against ferroptosis (Erastin-induced cell death, Cell Counting Kit-8); assay type: cell-based; settings: Erastin 3 μmol/L, 24 hours
Method: The inhibitory action against ferroptosis of the tetrahydroquinoline derivative (I) or a pharmaceutically acceptable salt thereof was evaluated with Human fibrosarcoma cells (HT-1080 cells), by using, as an index, the inhibitory action against the cell death induced by treatment with a ferroptosis inducer, Erastin.
HT-1080 cells (ATCC) were cultured in a mixture (hereinafter referred to as vehicle) composed of DMEM/F12 (Thermo Fisher Scientific, Inc.), a final concentration of 10% fetal bovine serum (Thermo Fisher Scientific, Inc.), and a final concentration of 1% penicillin-streptomycin solution (Nacalai Tesque, Inc.). Cells were seeded into 96-well plates (Corning Inc.) at 5×10^4 cells/well and cultured overnight.
A test compound was dissolved in DMSO, and the resulting solution was diluted in the vehicle to a final concentration of 1% DMSO and then used. […] Thirty minutes after the addition of the test compound, Erastin (Cayman Chemical Co.) diluted in the vehicle at a final concentration of 3 μmol/L was added to wells. The wells added with the test compound and Erastin were grouped as “test compound,” and the wells added with no test compound and no Erastin were grouped as “background,” and the wells added with no test compound but with Erastin were grouped as “control.” Twenty-four hours after the addition of Erastin, 5 μL of Cell Counting Kit-8 (Dojindo Laboratories) was added to each well and incubated for 4 hours, and the absorbance at 450 nm was then measured for each well (N=2). […] Ferroptosis inhibition rate (%)=[1−{(Average absorbance value at 450 nm measured when a test compound is added)−(Average absorbance value at 450 nm measured in the background)}/{(Average absorbance value at 450 nm measured in the control)−(Average absorbance value at 450 nm measured in the background)}]×100 Equation 1

[2] = In vitro radical scavenging action (DPPH method); settings: 30 minutes at room temperature, maximum concentration 100 μmol/L
Method: Radical scavenging action was evaluated using the DPPH method in the compound of Comparative Example 1, which is a tetrahydroquinoxaline derivative, and in the tetrahydroquinoline derivative (I) or a pharmaceutically acceptable salt thereof. The DPPH method was performed using an antioxidant capacity measurement kit (Dojindo Laboratories).
A test compound was dissolved in DMSO, and the resulting solution was then mixed with an assay buffer and a DPPH solution, which are included in the kit, to a total volume of 200 μL to obtain a final concentration of 10% DMSO, and the reaction was allowed to proceed. Wells added with 100 μmol/L ferrostatin-1, a radical scavenger, were grouped as “control,” and wells added with not test compound were grouped as “background.” The test compound was serially diluted 3-fold starting from a maximum concentration of 100 μmol/L, and the diluted test compound (1.2, 3.7, 11.1, 33.3, or 100 μmol/L) was added and allowed to react at room temperature. Thirty minutes after the reaction, the absorbance at 517 nm was measured, and the average absorbance value was calculated (N=2). The radical scavenging action of the test compound (hereinafter referred to as radical scavenging rate, %) was calculated based on the equation 2 below. The EC50 value of the test compound was calculated from the radical scavenging rate. Radical scavenging rate (%)=[1−{(Average absorbance value at 517 nm measured when a test compound is added)−(Average absorbance value at 517 nm measured in the background)}/{(Average absorbance value at 517 nm measured in the control)−(Average absorbance value at 517 nm measured in the background)}]×100 Equation 2
A note “no detection of radical scavenging action (N.D.),” is given to compounds with a EC50 of >100 μmol/L.

[3] = evaluation concentration 30 μmol/L
[4] = evaluation concentration 50 μmol/L

Row | Structure (SMILES) | Ferroptosis inhibition rate (%) [1, 3] [%] | EC50 [2] [µM] | further results
1 | NC(=O)c1ccc(C2CCc3cc(F)ccc3N2)cc1 (stereo not shown) [Example 132, 4-(6-fluoro-1,2,3,4-tetrahydroquinolin-2-yl)benzamide] | 105.6 | > 100 | –
2 | NS(=O)(=O)c1ccc(C2CCc3cc(F)ccc3N2)cc1 (stereo not shown) [Example 107, 4-(6-fluoro-1,2,3,4-tetrahydroquinolin-2-yl)benzenesulfonamide] | 100.8 | > 100 | –
3 | Cc1ccc2c(c1)NC(c1ccc(S(N)(=O)=O)cc1)CC2 (stereo not shown) [Example 105, 4-(7-methyl-1,2,3,4-tetrahydroquinolin-2-yl)benzenesulfonamide] | 99.03 | > 100 | –
4 | O=C(Cc1ccc2c(c1)CCC(c1ccccc1)N2)NC1CC1 (stereo not shown) [Example 152, N-cyclopropyl-2-(2-phenyl-1,2,3,4-tetrahydroquinolin-6-yl)acetamide] | 108.1 | > 100 | –
5 | c1ccc([C@@H]2CCc3ccccc3N2)cc1 [Example 3, (S)-2-phenyl-1,2,3,4-tetrahydroquinoline] | 110.2 | > 100 | –
6 | OCc1ccc2c(c1)CCC(c1ccccc1)N2 (stereo not shown) [Example 58, (2-phenyl-1,2,3,4-tetrahydroquinolin-6-yl)methanol] | 91.37 | > 100 | –
7 | O=C(Cc1ccc2c(c1)CCC(c1ccccc1)N2)N1CCNCC1 (stereo not shown) [Example 158, 2-(2-phenyl-1,2,3,4-tetrahydroquinolin-6-yl)-1-(piperazin-1-yl)ethan-1-one] | 55.98 | > 100 | –
8 | O=C(Cc1ccc2c(c1)CCC(c1ccccc1)N2)N1CC(F)(F)C1 (stereo not shown) [Example 161, 1-(3,3-difluoroazetidin-1-yl)-2-(2-phenyl-1,2,3,4-tetrahydroquinolin-6-yl)ethan-1-one] | – | > 100 | Ferroptosis inhibition rate (%) ([1]; evaluation concentration 10 μmol/L): 94.01%
9 | CC(=O)Nc1ccc(C2CCc3ccccc3N2)cc1 (stereo not shown) [Example 21, N-(4-(1,2,3,4-tetrahydroquinolin-2-yl)phenyl)acetamide] | 88.33 | > 100 | –
10 | Clc1cccc2c1CCC(c1ccccc1)N2 (stereo not shown) [Example 67, 5-chloro-2-phenyl-1,2,3,4-tetrahydroquinoline] | 102.4 | > 100 | –
11 | O=C(Cc1ccc2c(c1)CCC(c1ccccc1)N2)NC1CCC1 (stereo not shown) [Example 155, N-cyclobutyl-2-(2-phenyl-1,2,3,4-tetrahydroquinolin-6-yl)acetamide] | 106.1 | > 100 | –
12 | Clc1ccc2c(c1)NC(c1ccccc1)CC2 (stereo not shown) [Example 69, 7-chloro-2-phenyl-1,2,3,4-tetrahydroquinoline] | 106.4 | > 100 | –
13 | N#Cc1ccc(C2CCc3ccccc3N2)cc1 (stereo not shown) [Example 35, 4-(1,2,3,4-tetrahydroquinolin-2-yl)benzonitrile] | 106.5 | > 100 | –
14 | O=C(Cc1ccc2c(c1)CCC(c1ccccc1)N2)N1CCOCC1 (stereo not shown) [Example 145, 1-morpholino-2-(2-phenyl-1,2,3,4-tetrahydroquinolin-6-yl)ethan-1-one] | 102.0 | > 100 | –
15 | c1ccc(C2CNc3ccccc3N2)cc1 (stereo not shown) [Comparative Example 1, 2-phenyl-1,2,3,4-tetrahydroquinoxaline, reference compound] | – | 8.54 | Radical-scavenging action EC50 (μmol/L) [2]: exhibited radical scavenging action
16 | c1ccc(C2CCc3ccccc3N2)nc1 (stereo not shown) [Example 53, 2-(pyridin-2-yl)-1,2,3,4-tetrahydroquinoline] | – | – | Ferroptosis inhibition rate (%) [1, 4]: 111.3%
17 | Cc1ccc2c(c1)CCC(c1ccc(S(N)(=O)=O)c(F)c1)N2 (stereo not shown) [Example 113, 2-fluoro-4-(6-methyl-1,2,3,4-tetrahydroquinolin-2-yl)benzenesulfonamide] | 97.54 | – | –

Row | Structure (SMILES) | Ferroptosis inhibition rate (%) [1, 3] [%] | EC50 [2] [µM] | further results
18 | O=C(Cc1ccc2c(c1)CCC(c1ccccc1)N2)NCC1COC1 (stereo not shown) [Example 154, N-(oxetan-3-ylmethyl)-2-(2-phenyl-1,2,3,4-tetrahydroquin-olin-6-yl)acetamide] | 114.6 | – | –
19 | COc1ccc2c(c1)CCC(c1ccc3c(c1)OCO3)N2 (stereo not shown) [Example 7, 2-(benzo[d][1,3]dioxol-5-yl)-6-methoxy-1,2,3,4-tetrahydro-quinoline] | – | – | Ferroptosis inhibition rate (%) [1, 4]: 93.95%
20 | O=C1CCc2cc(C3CCc4cc(F)ccc4N3)ccc2N1 (stereo not shown) [Example 133, 6-fluoro-1,2,3,3′,4,4′-hexahydro-[2,6′-biquinolin]-2′(1′H)-one] | 98.54 | – | –
21 | Cc1ccc2c(c1)CCC(c1cn[nH]c1)N2 (stereo not shown) [Example 97, 6-methyl-2-(1H-pyrazol-4-yl)-1,2,3,4-tetrahydroquinoline] | 83.94 | – | –
22 | Fc1cc(F)c2c(c1)CCC(c1ccccc1)N2 (stereo not shown) [Example 86, 6,8-difluoro-2-phenyl-1,2,3,4-tetrahydroquinoline] | – | – | Ferroptosis inhibition rate (%) [1, 4]: 98.80%
23 | Oc1ccc2c(c1)CCC(c1ccccc1)N2 (stereo not shown) [Example 55, 2-phenyl-1,2,3,4-tetrahydroquinolin-6-ol] | 93.72 | – | –
24 | CC(C)(O)c1ccc2c(c1)CCC(c1ccccc1)N2 (stereo not shown) [Example 57, 2-(2-phenyl-1,2,3,4-tetrahydroquinolin-6-yl)propan-2-ol] | 89.18 | – | –
25 | CC1(c2ccccc2)CCc2ccccc2N1 (stereo not shown) [Example 91, 2-methyl-2-phenyl-1,2,3,4-tetrahydroquinoline] | 105.2 | – | –
26 | O=C1CCc2cc(C3CCc4ccccc4N3)ccc2N1 (stereo not shown) [Example 125, 1,2,3,3′,4,4′-hexahydro-[2,6′-biquinolin]-2′(1′H)-one] | 102.6 | – | –
27 | Fc1cccc(C2CCc3ccccc3N2)c1 (stereo not shown) [Example 27, 2-(3-fluorophenyl)-1,2,3,4-tetrahydroquinoline] | – | – | Ferroptosis inhibition rate (%) [1, 4]: 113.1%
28 | COc1ccccc1C1CCc2ccccc2N1 (stereo not shown) [Example 6, 2-(2-methoxyphenyl)-1,2,3,4-tetrahydroquinoline] | – | – | Ferroptosis inhibition rate (%) [1, 4]: 90.22%
29 | c1ccc2c(c1)CCC(c1cn[nH]c1)N2 (stereo not shown) [Example 13, 2-(1H-pyrazol-4-yl)-1,2,3,4-tetrahydroquinoline] | 119.6 | – | –
30 | CC(C)(C)CC(=O)Nc1ccc2c(c1)CCC(c1ccccc1)N2 (stereo not shown) [Example 129, 3,3-dimethyl-N-(2-phenyl-1,2,3,4-tetrahydroquinolin-6-yl)butanamide] | 88.31 | – | –
31 | O=C1NCc2cc(C3CCc4ccccc4N3)ccc21 (stereo not shown) [Example 124, 5-(1,2,3,4-tetrahydroquinolin-2-yl)isoindolin-1-one] | 106.3 | – | –
32 | NC(=O)c1ccc(C2CNc3ccccc3C2)cc1 (stereo not shown) [Example 166, 4-(1,2,3,4-tetrahydroquinolin-3-yl)benzamide] | 96.52 | – | –
33 | c1ccc2c(c1)CCC(c1cc[nH]n1)N2 (stereo not shown) [Example 22, 2-(1H-pyrazol-3-yl)-1,2,3,4-tetrahydroquinoline] | 103.2 | – | –
34 | N#Cc1cccc(C2CCc3ccccc3N2)c1 (stereo not shown) [Example 45, 3-(1,2,3,4-tetrahydroquinolin-2-yl)benzonitrile] | 109.1 | – | –
